In one series the target is T1, CYP2B2 (Rattus norvegicus, UniProt P04167).
T1 construct: and 1 mg/ml rat liver microsomes; from tissue; host or cells: rat liver microsomes
T1 sequence (P04167 1-491): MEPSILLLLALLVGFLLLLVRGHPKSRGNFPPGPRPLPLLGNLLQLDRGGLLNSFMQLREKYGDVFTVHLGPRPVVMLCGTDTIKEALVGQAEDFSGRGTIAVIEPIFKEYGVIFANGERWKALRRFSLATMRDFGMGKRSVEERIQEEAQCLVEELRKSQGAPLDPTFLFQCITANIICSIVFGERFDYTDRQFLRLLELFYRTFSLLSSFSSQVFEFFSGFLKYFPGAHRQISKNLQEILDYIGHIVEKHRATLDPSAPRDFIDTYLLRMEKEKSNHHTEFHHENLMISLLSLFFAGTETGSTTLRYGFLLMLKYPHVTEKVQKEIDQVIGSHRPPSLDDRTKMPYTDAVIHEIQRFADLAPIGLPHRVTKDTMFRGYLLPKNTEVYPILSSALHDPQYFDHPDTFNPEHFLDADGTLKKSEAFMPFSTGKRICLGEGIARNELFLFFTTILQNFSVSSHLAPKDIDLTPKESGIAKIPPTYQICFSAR
Details: method as in Otten et al., 2011. The conditions noted are these: CYP enzyme 2B2; cocktail probe substrate parameter, source not stated; ref Otten et al., 2011; cited from earlier work.

A further series has as its target T2, CYP2A2 (Rattus norvegicus, UniProt P15149).
T2 construct: and 1 mg/ml rat liver microsomes; from tissue; host or cells: rat liver microsomes
Details: method as in Otten et al., 2011. The conditions noted are these: CYP enzyme 2A2; cocktail probe substrate parameter, source not stated; ref Otten et al., 2011; cited from earlier work.

In another series the target is T3, CYP2D1 (Rattus norvegicus, UniProt P10633).
T3 construct: and 1 mg/ml rat liver microsomes; from tissue; host or cells: rat liver microsomes
T3 sequence (P10633 1-504): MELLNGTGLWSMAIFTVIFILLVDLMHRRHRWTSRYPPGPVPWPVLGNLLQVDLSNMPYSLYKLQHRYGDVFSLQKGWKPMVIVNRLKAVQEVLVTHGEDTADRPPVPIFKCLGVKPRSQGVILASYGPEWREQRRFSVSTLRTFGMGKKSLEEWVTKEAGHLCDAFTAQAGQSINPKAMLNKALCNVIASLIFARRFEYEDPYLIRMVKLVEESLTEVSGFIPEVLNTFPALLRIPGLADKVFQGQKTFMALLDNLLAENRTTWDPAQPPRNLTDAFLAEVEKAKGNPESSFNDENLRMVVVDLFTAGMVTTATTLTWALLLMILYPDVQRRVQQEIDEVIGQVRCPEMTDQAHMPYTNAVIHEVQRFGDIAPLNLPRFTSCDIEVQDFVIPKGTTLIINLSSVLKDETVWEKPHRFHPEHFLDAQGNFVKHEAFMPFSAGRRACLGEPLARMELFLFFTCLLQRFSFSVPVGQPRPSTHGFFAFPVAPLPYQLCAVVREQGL
Details: method as in Otten et al., 2011. The conditions noted are these: CYP enzyme 2D1; cocktail probe substrate parameter, source not stated; ref Otten et al., 2011; cited from earlier work.

The test system of series [1] is bacterial ß-D-glucuronidase. Details: method as in Takeda et al., 1996. The note with it: gastrointestinal tract, after oral administration; ref Takeda et al., 1996; cited from earlier work.
For a further series, the system named is rat liver microsomes. In words: Formation of 7,9-diGS-DHP from RTS in rat liver microsomes. The series is classed as biochemical. The note with it: KCZ 25 µM; 1 mg/ml rat liver microsomes, 200 µM RTS. As for the experimental part:
The injection volume was 3 μL. […] The injection volume was 5 µL.

A further series concerns CYP1A2. The note with it: CYP enzyme 1A2; cocktail probe substrate parameter, source not stated; ref Otten et al., 2011; cited from earlier work.
The next series has as its target T4, CYP2C11 (Rattus norvegicus, UniProt P08683).
T4 construct: and 1 mg/ml rat liver microsomes; from tissue; host or cells: rat liver microsomes
T4 sequence (P08683 1-500): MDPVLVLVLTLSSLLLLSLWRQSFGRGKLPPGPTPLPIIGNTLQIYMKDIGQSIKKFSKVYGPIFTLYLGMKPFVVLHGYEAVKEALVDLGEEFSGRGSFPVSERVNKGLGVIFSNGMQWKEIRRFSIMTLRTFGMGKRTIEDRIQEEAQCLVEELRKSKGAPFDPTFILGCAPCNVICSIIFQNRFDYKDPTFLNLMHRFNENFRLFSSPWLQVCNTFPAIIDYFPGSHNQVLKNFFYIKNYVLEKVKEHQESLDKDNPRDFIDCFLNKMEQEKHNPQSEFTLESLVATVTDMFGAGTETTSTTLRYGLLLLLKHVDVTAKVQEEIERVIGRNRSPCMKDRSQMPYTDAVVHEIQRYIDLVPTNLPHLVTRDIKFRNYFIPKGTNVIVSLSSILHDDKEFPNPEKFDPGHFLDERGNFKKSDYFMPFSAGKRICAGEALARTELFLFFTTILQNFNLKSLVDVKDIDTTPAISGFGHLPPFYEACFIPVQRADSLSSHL
Details: method as in Otten et al., 2011. The conditions noted are these: CYP enzyme 2C11; cocktail probe substrate parameter, source not stated; ref Otten et al., 2011; cited from earlier work.

T2 sequence (P15149 whole entry): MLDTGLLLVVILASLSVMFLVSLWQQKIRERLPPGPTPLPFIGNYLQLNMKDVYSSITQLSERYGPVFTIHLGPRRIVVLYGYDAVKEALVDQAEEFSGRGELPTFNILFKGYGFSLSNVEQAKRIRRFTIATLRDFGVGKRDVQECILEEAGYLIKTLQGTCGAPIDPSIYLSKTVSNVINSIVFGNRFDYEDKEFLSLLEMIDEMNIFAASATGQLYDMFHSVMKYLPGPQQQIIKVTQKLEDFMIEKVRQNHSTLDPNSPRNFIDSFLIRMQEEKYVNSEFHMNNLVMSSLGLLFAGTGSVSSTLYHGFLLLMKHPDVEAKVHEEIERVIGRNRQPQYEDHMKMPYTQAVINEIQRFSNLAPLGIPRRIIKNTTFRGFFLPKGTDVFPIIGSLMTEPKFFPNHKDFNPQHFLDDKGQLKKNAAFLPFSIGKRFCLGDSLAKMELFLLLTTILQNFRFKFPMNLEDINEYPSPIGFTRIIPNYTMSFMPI

What is called Km is the concentration of substrate that gives half-maximal velocity. `CC(NC(C)(C)C)C(=O)c1cccc(Cl)c1` (stereo not shown) [Bupropion]: the Km on CYP2B2 is 67 to 168 µM.
In the case of `O=c1ccc2ccccc2o1` [Coumarin], the Km on CYP2A2 is 300 to 2300 nM.
In the case of `COc1ccc2c(c1)[C@]13CCCC[C@@H]1[C@H](C2)N(C)CC3` [Dextromethorphan], on CYP2D1, the Michaelis constant (Km) was 0.4 to 8.5 µM.
`CC1(C)[C@@H](O[C@H]2O[C@H](C(=O)O)[C@@H](O)[C@H](O)[C@H]2O[C@@H]2O[C@H](C(=O)O)[C@@H](O)[C@H](O)[C@H]2O)CC[C@]2(C)[C@H]3C(=O)C=C4[C@@H]5C[C@@](C)(C(=O)O)CC[C@]5(C)CC[C@@]4(C)[C@]3(C)CC[C@@H]12` [GL, Glycyrrhizin]: the “fraction of GL irreversibly transformed into 18β-GA” value in series [1] is given as around 100%.
For the compound `CC(=O)N1CCN(c2ccc(OCC3COC(Cn4ccnc4)(c4ccc(Cl)cc4Cl)O3)cc2)CC1` (stereo not shown) [KCZ, ketoconazole], the “reduction of the formation of 7,9-diGS-DHP” value with rat liver microsomes is 62%.
On to `CCOc1ccc(NC(C)=O)cc1` [Phenacetin], for which the Km in the series with CYP1A2 is 1.7 to 152 µM.
Turning to `CC[C@@]1(c2ccccc2)NC(=O)N(C)C1=O` [S-Mephenytoin], at CYP2C11, the Michaelis-Menten constant (Km) was 13 to 35 µM.
